Measured values from patent publication US20090068290A1, “BIFEPRUNOX DOSES FOR TREATING SCHIZOPHRENIA” (priority 2006, published 2009).

Legend:
[1] = tested on: adult subjects with schizophrenia; test: PANSS negative subscale score, Clinical Study One; type: in vivo, human; conditions: ITT; for PANSS Negative Subscale Score, Trt Effect (bifeprunox—placebo): ANCOVA
Description: (§1) There were five treatment groups in this study. […] Study medication was administered once daily. After Baseline measurements were performed, the titration phase was begun. Bifeprunox treated subjects were titrated up to 5 mg, 10 mg or 20 mg according to a standardized titration schedule (Day 1: 0.125 mg, Day 2: 0.25 mg, Day 3: 0.5 mg, Day 4: 1.0 mg, Day 5: 2.0 mg, Day 6: 5.0 mg, Day 7: 10.0 mg, Day 8: 20 mg). When the assigned dose was reached, subjects were maintained at that dose for the remainder of the six-week treatment period.
The change in the Positive and Negative Symptom Scale (PANSS) total score, from baseline to endpoint, was the primary outcome measure. Secondary efficacy measures included: PANSS positive, PANSS negative, PANSS general psychopathology (GPP) score, PANSS-derived Brief Psychiatric Rating Scale (BPRS) score, Clinical Global Impressions-Severity of Illness (CGI-S), CGI-Improvement (CGI-I) scores, and responder rates. Safety and tolerability evaluations included extrapyramidal symptoms (EPS), weight gain, lipid profile, and serum prolactin.

[2] = tested on: adult subjects with schizophrenia; test: BPRS psychosis cluster score, Clinical Study One; type: in vivo, human; conditions: for Change from Baseline in BPRS Psychosis Cluster Score, Mean (S.D.) / Change from Baseline in BPRS Psychosis Cluster Score, Median / Change from Baseline in BPRS Psychosis Cluster Score, Trt Effect (bifeprunox—placebo) / Change from Baseline in BPRS Psychosis Cluster Score, Mean S.D.: ITT population
Description: as §1

[3] = Bifeprunox 10 mg, Endpoint LOCF
[4] = Bifeprunox 20 mg, Endpoint LOCF

Question: Which “Change from Baseline in PANSS Negative Subscale Score, Mean (S.D.)” value ([1]; Bifeprunox 5 mg, Endpoint LOCF) does the source give for O=c1[nH]c2cccc(N3CCN(Cc4cccc(-c5ccccc5)c4)CC3)c2o1 [Bifeprunox, 7-[4-([1,1′-biphenyl]-3-ylmethyl)-1-piperazinyl]-2(3H)-benzoxazolone] here?
Answer: −2.2 (4.9)

Question: What about the “Change from Baseline in PANSS Negative Subscale Score, Median” value ([1]; Bifeprunox 5 mg, Endpoint LOCF) of the same compound?
Answer: −2

Question: What about the “PANSS Negative Subscale Score, Trt Effect (bifeprunox—placebo)” value ([1]; Bifeprunox 5 mg, Endpoint LOCF) of the same compound?
Answer: −1.0

Question: What about the “Change from Baseline in PANSS Negative Subscale Score, Mean (S.D.)” value ([1]; Bifeprunox 5 mg, Week 1, LOCF) of the same compound?
Answer: −1.1 (3.9)

Question: And the “Change from Baseline in PANSS Negative Subscale Score, Median” value ([1]; Bifeprunox 5 mg, Week 1, LOCF)?
Answer: −1

Question: What about the “Change from Baseline in PANSS Negative Subscale Score, Mean (S.D.)” value ([1]; Bifeprunox 5 mg, Week 2, LOCF) of the same compound?
Answer: −1.8 (4.4)

Question: And the “Change from Baseline in PANSS Negative Subscale Score, Median” value ([1]; Bifeprunox 5 mg, Week 2, LOCF)?
Answer: −2

Question: And the “Change from Baseline in PANSS Negative Subscale Score, Mean (S.D.)” value ([1]; Bifeprunox 5 mg, Week 3, LOCF)?
Answer: −1.8 (4.7)

Question: And the “Change from Baseline in PANSS Negative Subscale Score, Median” value ([1]; Bifeprunox 5 mg, Week 3, LOCF)?
Answer: −2

Question: What about the “Change from Baseline in PANSS Negative Subscale Score, Mean (S.D.)” value ([1]; Bifeprunox 5 mg, Week 4, LOCF) of the same compound?
Answer: −2.0 (4.9)

Question: What about the “Change from Baseline in PANSS Negative Subscale Score, Median” value ([1]; Bifeprunox 5 mg, Week 4, LOCF) of the same compound?
Answer: −1

Question: What about the “Change from Baseline in PANSS Negative Subscale Score, Mean (S.D.)” value [1, 3] of the same compound?
Answer: −1.7 (4.7)

Question: What about the “Change from Baseline in PANSS Negative Subscale Score, Median” value [1, 3] of the same compound?
Answer: −1

Question: And the “Change from Baseline in PANSS Negative Subscale Score, Mean (S.D.)” value ([1]; Bifeprunox 10 mg, Week 1, LOCF)?
Answer: −1.4 (3.4)

Question: What about the “Change from Baseline in PANSS Negative Subscale Score, Median” value ([1]; Bifeprunox 10 mg, Week 1, LOCF) of the same compound?
Answer: −1

Question: What about the “Change from Baseline in PANSS Negative Subscale Score, Mean (S.D.)” value ([1]; Bifeprunox 10 mg, Week 2, LOCF) of the same compound?
Answer: −1.5 (4.2)

Question: And the “Change from Baseline in PANSS Negative Subscale Score, Median” value ([1]; Bifeprunox 10 mg, Week 2, LOCF)?
Answer: −1

Question: And the “Change from Baseline in PANSS Negative Subscale Score, Mean (S.D.)” value ([1]; Bifeprunox 10 mg, Week 3, LOCF)?
Answer: −1.7 (5.0)

Question: What about the “Change from Baseline in PANSS Negative Subscale Score, Median” value ([1]; Bifeprunox 10 mg, Week 3, LOCF) of the same compound?
Answer: −1

Question: And the “Change from Baseline in PANSS Negative Subscale Score, Mean (S.D.)” value ([1]; Bifeprunox 10 mg, Week 4, LOCF)?
Answer: −1.5 (4.6)

Question: What about the “Change from Baseline in PANSS Negative Subscale Score, Median” value ([1]; Bifeprunox 10 mg, Week 4, LOCF) of the same compound?
Answer: −1

Question: What about the “Change from Baseline in PANSS Negative Subscale Score, Mean (S.D.)” value [1, 4] of the same compound?
Answer: −2.6 (5.3)

Question: And the “Change from Baseline in PANSS Negative Subscale Score, Median” value [1, 4]?
Answer: −2

Question: What about the “PANSS Negative Subscale Score, Trt Effect (bifeprunox—placebo)” value [1, 4] of the same compound?
Answer: −1.4

Question: What about the “Change from Baseline in PANSS Negative Subscale Score, Mean (S.D.)” value ([1]; Bifeprunox 20 mg, Week 1, LOCF) of the same compound?
Answer: −1.6 (3.4)

Question: What about the “Change from Baseline in PANSS Negative Subscale Score, Median” value ([1]; Bifeprunox 20 mg, Week 1, LOCF) of the same compound?
Answer: −1

Question: What about the “Change from Baseline in PANSS Negative Subscale Score, Mean (S.D.)” value ([1]; Bifeprunox 20 mg, Week 2, LOCF) of the same compound?
Answer: −2.0 (4.2)

Question: And the “Change from Baseline in PANSS Negative Subscale Score, Median” value ([1]; Bifeprunox 20 mg, Week 2, LOCF)?
Answer: −1

Question: What about the “Change from Baseline in PANSS Negative Subscale Score, Mean (S.D.)” value ([1]; Bifeprunox 20 mg, Week 3, LOCF) of the same compound?
Answer: −2.7 (4.4)

Question: And the “Change from Baseline in PANSS Negative Subscale Score, Mean (S.D.)” value ([1]; Bifeprunox 20 mg, Week 4, LOCF)?
Answer: −2.5 (4.6)

Question: What about the “Change from Baseline in PANSS Negative Subscale Score, Median” value ([1]; Bifeprunox 20 mg, Week 4, LOCF) of the same compound?
Answer: −2

Question: And the “BPRS psychosis cluster score, treatment effect (bifeprunox—placebo)” value ([2]; Bifeprunox 5 mg, Endpoint LOCF)?
Answer: −0.9

Question: What about the “Change from Baseline in BPRS Psychosis Cluster Score, Mean (S.D.)” value ([2]; Bifeprunox 5 mg, Endpoint LOCF) of the same compound?
Answer: 2.5 (3.8)

Question: And the “Change from Baseline in BPRS Psychosis Cluster Score, Median” value ([2]; Bifeprunox 5 mg, Endpoint LOCF)?
Answer: −3

Question: What about the “Change from Baseline in BPRS Psychosis Cluster Score, Trt Effect (bifeprunox—placebo)” value (“Change from Baseline … (bifeprunox—placebo)” for short) ([2]; Bifeprunox 5 mg, Endpoint LOCF) of the same compound?
Answer: −0.9

Question: What about the “Change from Baseline in BPRS Psychosis Cluster Score, Mean (S.D.)” value ([2]; Bifeprunox 5 mg, Week 1, LOCF) of the same compound?
Answer: −1.0 (2.6)

Question: What about the “Change from Baseline in BPRS Psychosis Cluster Score, Median” value ([2]; Bifeprunox 5 mg, Week 1, LOCF) of the same compound?
Answer: −1

Question: What about the “Change from Baseline in BPRS Psychosis Cluster Score, Mean S.D.” value ([2]; Bifeprunox 5 mg, Week 2, LOCF) of the same compound?
Answer: −1.8 (3.3)

Question: And the “Change from Baseline in BPRS Psychosis Cluster Score, Median” value ([2]; Bifeprunox 5 mg, Week 2, LOCF)?
Answer: −2

Question: What about the “Change from Baseline in BPRS Psychosis Cluster Score, Mean (S.D.)” value ([2]; Bifeprunox 5 mg, Week 3, LOCF) of the same compound?
Answer: −2.2 (3.6)

Question: And the “Change from Baseline in BPRS Psychosis Cluster Score, Median” value ([2]; Bifeprunox 5 mg, Week 3, LOCF)?
Answer: −2

Question: What about the “Change from Baseline in BPRS Psychosis Cluster Score, Mean (S.D.)” value ([2]; Bifeprunox 5 mg, Week 4, LOCF) of the same compound?
Answer: −24 (3.8)

Question: What about the “Change from Baseline in BPRS Psychosis Cluster Score, Median” value ([2]; Bifeprunox 5 mg, Week 4, LOCF) of the same compound?
Answer: −3

Question: What about the “BPRS psychosis cluster score, treatment effect (bifeprunox—placebo)” value [2, 3] of the same compound?
Answer: 0.4

Question: What about the “Change from Baseline in BPRS Psychosis Cluster Score, Mean (S.D.)” value [2, 3] of the same compound?
Answer: −1.2 (4.6)

Question: And the “Change from Baseline in BPRS Psychosis Cluster Score, Median” value [2, 3]?
Answer: 0

Question: What about the “Change from Baseline … (bifeprunox—placebo)” value [2, 3] of the same compound?
Answer: 0.4

Question: And the “Change from Baseline in BPRS Psychosis Cluster Score, Mean (S.D.)” value ([2]; Bifeprunox 10 mg, Week 1, LOCF)?
Answer: −0.7 (3.0)

Question: And the “Change from Baseline in BPRS Psychosis Cluster Score, Median” value ([2]; Bifeprunox 10 mg, Week 1, LOCF)?
Answer: −1

Question: And the “Change from Baseline in BPRS Psychosis Cluster Score, Mean S.D.” value ([2]; Bifeprunox 10 mg, Week 2, LOCF)?
Answer: −1.1 (3.7)

Question: What about the “Change from Baseline in BPRS Psychosis Cluster Score, Median” value ([2]; Bifeprunox 10 mg, Week 2, LOCF) of the same compound?
Answer: −1

Question: And the “Change from Baseline in BPRS Psychosis Cluster Score, Mean (S.D.)” value ([2]; Bifeprunox 10 mg, Week 3, LOCF)?
Answer: −1.1 (4.2)

Question: What about the “Change from Baseline in BPRS Psychosis Cluster Score, Median” value ([2]; Bifeprunox 10 mg, Week 3, LOCF) of the same compound?
Answer: −1

Question: What about the “Change from Baseline in BPRS Psychosis Cluster Score, Mean (S.D.)” value ([2]; Bifeprunox 10 mg, Week 4, LOCF) of the same compound?
Answer: −1.1 (4.3)

Question: And the “Change from Baseline in BPRS Psychosis Cluster Score, Median” value ([2]; Bifeprunox 10 mg, Week 4, LOCF)?
Answer: −1

Question: And the “Change from Baseline in BPRS Psychosis Cluster Score, Mean (S.D.)” value [2, 4]?
Answer: −2.7 (3.9)

Question: What about the “Change from Baseline in BPRS Psychosis Cluster Score, Median” value [2, 4] of the same compound?
Answer: −3

Question: What about the “Change from Baseline … (bifeprunox—placebo)” value [2, 4] of the same compound?
Answer: −1.1
